Counter-ions that a name gives are not always drawn.
Experiments:
Type in all cases: in vivo
[1] = system: CEW (Helicoverpa zea); experiment: Bioassay on corn earworm (CEW), 128-well diet tray assay; settings: 50 μg/cm2 on artificial diet, second instar larvae, five to seven days, 25° C.; for mortality at 50 µg/cm2: Helicoverpa zea, 168 h
Experimental: (§1) Certain molecules disclosed in this document were tested against BAW and CEW using procedures described in the following examples. In the reporting of the results, the “BAW & CEW Rating Table” was used (See Table Section).
Bioassays on CEW were conducted using a 128-well diet tray assay. one to five second instar CEW larvae were placed in each well (3 mL) of the diet tray that had been previously filled with 1 mL of artificial diet to which 50 μg/cm^2 of the test compound (dissolved in 50 μL of 90:10 acetone-water mixture) had been applied (to each of eight wells) and then allowed to dry. Trays were covered with a clear self-adhesive cover, and held at 25° C., 14:10 light-dark for five to seven days. Percent mortality was recorded for the larvae in each well; activity in the eight wells was then averaged. The results are indicated in the table entitled “Table 1” (See Table Section).

[2] = system: BAW (Spodoptera exigua); experiment: Bioassay on beet armyworm (BAW), 128-well diet tray assay; settings: 50 μg/cm2 on artificial diet, second instar larvae, five to seven days, 25° C.; for mortality at 50 µg/cm2: Spodoptera exigua, 168 h
Experimental: as §1
Bioassays on BAW were conducted using a 128-well diet tray assay. one to five second instar BAW larvae were placed in each well (3 mL) of the diet tray that had been previously filled with 1 mL of artificial diet to which 50 μg/cm^2 of the test compound (dissolved in 50 μL of 90:10 acetone-water mixture) had been applied (to each of eight wells) and then allowed to dry. Trays were covered with a clear self-adhesive cover, and held at 25° C., 14:10 light-dark for five to seven days. Percent mortality was recorded for the larvae in each well; activity in the eight wells was then averaged. The results are indicated in the table entitled “Table 1” (See Table Section).

[3] = system: GPA (Myzus persicae); experiment: Bioassay on green peach aphid (GPA), foliar spray on cabbage seedlings; settings: 200 ppm spray on cabbage seedlings, three days, Abbott corrected % control; for mortality at 200 ppm: Myzus persicae, foliar, 72 h
Experimental: Certain molecules disclosed in this document were tested against GPA using procedures described in the following example. In the reporting of the results, the “GPA Rating Table” was used (See Table Section).
Cabbage seedlings grown in 3-inch pots, with 2-3 small (3-5 cm) true leaves, were used as test substrate. The seedlings were infested with 20-50 GPA (wingless adult and nymph stages) one day prior to chemical application. Four pots with individual seedlings were used for each treatment. Test compounds (2 mg) were dissolved in 2 mL of acetone/methanol (1:1) solvent, forming stock solutions of 1000 ppm test compound. The stock solutions were diluted 5× with 0.025% Tween 20 in H2O to obtain the solution at 200 ppm test compound. A hand-held aspirator-type sprayer was used for spraying a solution to both sides of […] leaves until runoff. Reference plants (solvent check) were sprayed with the diluent only containing 20% by volume of acetone/methanol (1:1) solvent. Treated plants were held in a holding room for three days at approximately 25° C. and ambient relative humidity (RH) prior to grading. Evaluation was conducted by counting the number of live aphids per plant under a microscope. Percent Control was measured by using Abbott's correction formula (W. S. Abbott, “A Method of Computing the Effectiveness of an Insecticide” J. Econ. Entomol. 18 (1925), pp. 265-26′7) as follows. Corrected % Control=100*(X−Y)/X • where • X=No. of live aphids on solvent check plants and • Y=No. of live aphids on treated plants

With `CCO[C@@H]1[C@@H](OC)[C@H](C)O[C@@H](ONCc2ccc(-c3ncn(-c4ccc(OC(F)(F)C(F)(F)F)cc4)n3)cc2)[C@@H]1OC` [Compound 1, O-((2S,3R,4R,5S,6S)-4-ethoxy-3,5-dimethoxy-6-methyl-tetrahydropyran-2-yl)-N-{4-[1-(4-pentafluoroethyloxy-phenyl)-1H-[1,2,4]triazol-3-yl]-benzyl}-hydroxylamine] the “% Mortality CEW 50 μg/cm2” value [1] was “A (50-100)”, the “% Mortality BAW 50 μg/cm2” value [2] was “A (50-100)” and the “% Mortality GPA 200 ppm” value [3] was “B (More than 0-Less than 80)”.
Molecule `CO[C@@H]1[C@@H](O)[C@H](C)O[C@@H](ONCc2ccc(-c3ncn(-c4ccc(OC(F)(F)C(F)(F)F)cc4)n3)cc2)[C@@H]1OC` [Compound 2, (2S,3S,4R,5R,6S)-4,5-Dimethoxy-2-methyl-6-(N-{4-[1-(4-pentafluoroethyloxy-phenyl)-1H-[1,2,4]triazo1-3-yl]-benzyl}aminooxy)-tetrahydroyran-3-ol] has a mortality at 50 µg/cm2 [1] of 50 to 100%, a mortality at 50 µg/cm2 [2] of 50 to 100% and a mortality at 200 ppm [3] of 0 to 80%.
`CO[C@@H]1[C@@H](OC)[C@H](C)O[C@@H](ONCc2ccc(-c3ncn(-c4ccc(OC(F)(F)F)cc4)n3)cc2)[C@@H]1OC` [Compound 3, N-{4-[1-(4-trifluoromethoxyphenyl)-1H-[1,2,4]triazol-3-yl]-benzyl}-O-((2S,3R,4R,5S,6S)-3,4,5-trimethoxy-6-methyl-tetrahydro-pyran-2-yl)-hydroxylamine] was tested, and the “% Mortality CEW 50 μg/cm2” value [1] was “A (50-100)”, the “% Mortality BAW 50 μg/cm2” value [2] was “A (50-100)” and the mortality at 200 ppm [3] was 0 to 80%.
For `CO[C@@H]1[C@@H](OC)[C@H](C)O[C@@H](ONCc2ccc(-c3ncn(-c4ccc(OC(F)(F)F)cc4)n3)cc2)[C@@H]1OC.Cl` [Compound 4, N-{4-[1-(4-trifluoromethoxyphenyl)-1H-[1,2,4]triazol-3-yl]-benzyl}-O-((2S,3R,4R,5S,6S)-3,4,5-trimethoxy-6-methyl-tetrahydropyran-2-yl)-hydroxylamine hydrochloride], the “% Mortality CEW 50 μg/cm2” value [1] was “B (More than 0-Less than 50)” and the mortality at 50 µg/cm2 [2] was 50 to 100%.
For `CCO[C@@H]1[C@@H](OC)[C@H](C)O[C@@H](ONCc2ccc(-c3ncn(-c4ccc(OC(F)(F)C(F)(F)F)cc4)n3)cc2)[C@@H]1OC` [Compound 5, O-((2S,3R,4R,5S,6S)-4-Ethoxy-3,5-dimethoxy-6-methyl-tetrahydropyran-2-yl)-N-{4-[1-(4-pentafluoroethyloxy-phenyl)-1H-[1,2,4]triazol-3-yl]-benzyl}-hydroxylamine hydrochloride], the mortality at 50 µg/cm2 [1] was 50 to 100%, the mortality at 50 µg/cm2 [2] was 50 to 100% and the mortality at 200 ppm [3] was 0%.
`CO[C@@H]1[C@@H](OC)[C@H](C)O[C@@H](ON(Cc2ccc(-c3ncn(-c4ccc(OC(F)(F)F)cc4)n3)cc2)C(C)=O)[C@@H]1OC` [Compound 6, N-{4-[1-(4-trifluoromethoxyphenyl)-1H-[1,2,4]triazol-3-yl]-benzyl}-N-((2S,3R,4R,5S,6S)-3,4,5-trimethoxy-6-methyl-tetrahydropyran-2-yloxy)-acetamide] gave a mortality at 50 µg/cm2 [1] of 50 to 100%, a mortality at 50 µg/cm2 [2] of 50 to 100% and a mortality at 200 ppm [3] of 0 to 80%.
For `CO[C@@H]1[C@@H](OC)[C@H](C)O[C@@H](ON(C)Cc2ccc(-c3ncn(-c4ccc(OC(F)(F)F)cc4)n3)cc2)[C@@H]1OC` [Compound 7, N-Methyl-N-{4-[1-(4-trifluoromethoxyphenyl)-1H-[1,2,4]triazol-3-yl]-benzyl}-O-((2S,3R,4R,5S6S)-3,4,5-trimethoxy-6-methyl-tetrahydro-pyran-2-yl)-hydroxylamine], the mortality at 50 µg/cm2 [1] was 50 to 100%, the mortality at 50 µg/cm2 [2] was 50 to 100% and the mortality at 200 ppm [3] was 0%.
In the case of `CO[C@@H]1[C@@H](OC)[C@H](C)O[C@@H](ON(Cc2ccc(-c3ncn(-c4ccc(OC(F)(F)F)cc4)n3)cc2)C(=O)CCC(=O)O)[C@@H]1OC` [Compound 8, N-{4-[1-(4-trifluoromethoxyphenyl)-1H-[1,2,4]triazol-3-yl]-benzyl}-N-((2S,3R,4R,5S,6S)-3,4,5-trimethoxy-6-methyl-tetrahydropyran-2-yloxy)-succinamic acid], the mortality at 50 µg/cm2 [1] is reported as 0%, the mortality at 50 µg/cm2 [2] is reported as 0% and the mortality at 200 ppm [3] is reported as 0%.
`COC(=O)CC(=O)N(Cc1ccc(-c2ncn(-c3ccc(OC(F)(F)F)cc3)n2)cc1)O[C@@H]1O[C@@H](C)[C@H](OC)[C@@H](OC)[C@H]1OC` [Compound 9, N-{4-[1-(4-trifluoromethoxyphenyl)-1H-[1,2,4]triazol-3-yl]-benzyl}-N-((2S,3R,4R,5S,6S)-3,4,5-trimethoxy-6-methyl-tetrahydropyran-2-yloxy)-malonamic acid methyl ester] was tested, and the mortality at 50 µg/cm2 [1] was 50 to 100%, the mortality at 50 µg/cm2 [2] was 50 to 100% and the mortality at 200 ppm [3] was 0 to 80%.
